Laboratory results: patent publication US20220306695A1, “COMPSTATIN ANALOGUES AND THEIR MEDICAL USES” (priority 2019, published 2022)
Read-outs that look alike come from different tables or passages of the source. Starred links: 1 amine or outer side, 2 acyl side, 3 side chain; linkers in the order of their positions; H or OH if unused. Positions of bridges follow the written chain, without caps; N, C: chain ends. Non-standard residues stand in square brackets, D forms with d. Residues, ends and D or L forms follow the SMILES beside them. Groups on a side chain read outwards from the residue. *: point of attachment. Trp(1-Me) = Cn1cc(C[C@H](N)C(=O)O)c2ccccc21; Abu(4-yl) = O=C([C@H](CC[*:3])N[*:1])[*:2]; C18 diacid = O=C(O)CCCCCCCCCCCCCCCCC(=O)*; C16 diacid = O=C(O)CCCCCCCCCCCCCCC(=O)*; γGlu = O=C(O)[C@H](CCC(=O)[*:2])N[*:1]; AEEA = NCCOCCOCC(=O)O; Sar = CNCC(=O)O

Assays:
[1] = test system: classical complement pathway; assay: In vitro haemolysis assay (inhibition of classical complement pathway); assay type: cell-based, human; conditions: Table 3; human serum, sensitized sheep red blood cells; read-out: IC50[nM], in vitro analysis of inhibition of hemolysis
How it was run: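 Serially diluted compound (9 points) was preincubated 15 min at room temperature with diluted human serum, titrated per batch to give 70-90% maximal haemolysis, in Tris/casein buffer pH 7.4 with Mg2+/Ca2+. Antibody-sensitized sheep erythrocytes were then added for 30 min at 37° C, and the reaction was stopped with EDTA. Haemolysis was read at A405, with IC50 from 4PL fit.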

[2] = in vivo; set-up: species or system Cynomolgus monkeys (Macaca fascicularis); conditions: male, cynomolgus monkey, sc, 1840 nmol/kg, t½
Experimental: Healthy male Cynomolgus monkeys (Macaca fascicularis) received single subcutaneous administrations of each test substance. Compounds were formulated in 20 mM phosphate adjusted with NaOH to pH 7.5 and mannitol for isotonicity and dosed at 1840 nmol/kg. Blood was collected from a femoral vein from each animal at the following times: Pre-dose, 1, 2, 4, 8, 24, 48, 72, 96 and 120 h (10 sampling times). Blood was collected into serum separation tubes and allowed to clot at room temperature. The tubes were centrifuged and resulting serum was aliquoted and snap-frozen over dry-ice and stored at nominally −80° C. until analysis. All NHP studies were performed in accordance with animal welfare laws and regulations, including approval of the study by a local ethical review process.
In order to assess pharmacokinetic half-life (t %/), serum samples isolated from non-human primates at specific time points after dosing were analysed for total drug compound after sample preparation by solid phase extraction (SPE) and liquid chromatography mass spectrometry (LC-MS/MS) using analogue internal standard. Single measurement of serum concentrations were used for calculation of the pharmacokinetic parameters using the non-compartmental approach in Phoenix WinNonlin 6.3. Plasma terminal elimination half-life (ty) was determined as In(2)/λz where λz is the magnitude of the slope of the log linear regression of the log concentration versus time profile during the terminal phase.

[3] = assay type: physicochemical; conditions: 50 mg/mL peptide; for Covalent oligomer content after 14 days 40° C. (%), F1 / Purity after 14 days 40° C. (%), F1: F1: 20 mM phosphate pH 5.5; for Covalent oligomer content after 14 days 40° C. (%), F1 / Covalent oligomer content after 14 days 40° C. (%), F2: denaturing SEC; for Purity after 14 days 40° C. (%), F1 / Purity after 14 days 40° C. (%), F2 / Purity after 14 days 40° C. (%), F3: normalized purity (HPLC)
Experimental: Chemical stability of compstatin analogues with cystathionine or disulfide bridge. Stability was assessed in three formulations at 50 mg/mL peptide, F1:20 mM phosphate pH 5.5, F2:20 mM phosphate pH 6.5 and F3:20 mM phosphate pH 7.5. The formulations were prepared by direct dissolution of peptide from lyophilized portions in the respective formulations. pH was adjusted to target with 1 M NaOH and 1 M HCl. Chemical stability was assessed under accelerated conditions (14 days, 40° C.) and evaluated as change in purity by reverse phase HPLC, and change in covalent oligomer content by denaturing SEC. The formulations were placed at 40° C. with analysis points at T=0, 7 and 14 days. On each time point a small volume was extracted and diluted to 2 mg/mL and tested by reverse phase HPLC and denaturing SEC. Purity was assessed by reverse phase HPLC using an Ultimate 3000 system for binary gradient application equipped with a Kinetix C18 column (cat. no. 00F-4462-Y0, 150 mm×3 mm, 2.6 μm) run at 0.5 ml/min with a gradient of buffer A (0.3% TFA, aq.) and buffer B (0.3% TFA, 90% MeCN, aq.) gradient from 40% B to 70% B over 20 min. Detection was done using a diode array detector set to 220 nm. Covalent oligomer formation was assessed by denaturing SEC (size exclusion chromatography) using an Ultimate 3000 system equipped with a TSKgel SuperSW 2000 column (cat. no. 818674, 300 mm×3 mm, 4 μm) run at 0.5 ml/min with isocratic flow of buffer A (0.1% TFA, 45% MeCN, aq.), 10 min. Detection was done using a diode array detector set to 215 nm. Compounds 126 and 156 were carefully weighed out and dissolved in formulations F1, F2 and F3 to a target concentration of 50 mg/mL. Once visually dissolved, concentration was confirmed by absorbance at 280 nm, and samples were placed in stability at 40° C. Samples for analysis were extracted on T=0, 7 and 14 days from a 40° C. climate chamber. The extracted volume was dissolved 1:25 (final concentration: 2 mg/mL) in 20 mM phosphate pH 5.5, 6.5 or 7.5 and measured by reverse phase HPLC and denaturing SEC by injection of 0.4 μL (column load […]). The resulting chromatograms were integrated to determine chemical purity by reverse phase HPLC and covalent oligomer content by denaturing SEC.

[4] = Solubility test at 10 mg/mL (visual inspection and light scattering); assay type: physicochemical

Row | SMILES | IC50 [1] | half-life [2] | Covalent oligomer content after 14 days 40° C. (%), F1 [3] | Purity after 14 days 40° C. (%), F1 [3] | Covalent oligomer content after 14 days 40° C. (%), F2 ([3]; F2: 20 mM phosphate pH 6.5) | Purity after 14 days 40° C. (%), F2 ([3]; F2: 20 mM phosphate pH 6.5) | Covalent oligomer content after 14 days 40° C. (%), F2 ([3]; F3: 20 mM phosphate pH 7.5) | Purity after 14 days 40° C. (%), F3 ([3]; F3: 20 mM phosphate pH 7.5) | Solubility, Condition 1 Acetate pH 4 ([4]; 10 mg/mL compound in 100 mM acetate pH 4) | Solubility, Condition 2 Acetate pH 5 ([4]; 10 mg/mL compound in 100 mM acetate pH 5) | Solubility, Condition 3 Phosphate pH 6 ([4]; 10 mg/mL compound in 100 mM phosphate pH 6) | Solubility, Condition 4 Phosphate pH 7 ([4]; 10 mg/mL compound in 100 mM phosphate pH 7) | Solubility, Condition 5 Phosphate pH 7.5 ([4]; 10 mg/mL compound in 100 mM phosphate pH 7.5)
1 | CC[C@H](C)[C@@H]1NC(=O)[C@@H](NC(=O)[C@H](Cc2ccccc2)NC(=O)[C@H](CCC(=O)O)NC(=O)[C@H](CO)NC(C)=O)CSCC[C@@H](C(=O)N(C)CC(=O)N[C@@H](CCC(=O)O)C(=O)NCC(=O)N[C@@H](CCC(=O)O)C(=O)NCCOCCOCC(=O)N[C@@H](CCC(=O)O)C(=O)N[C@@H](CO)C(=O)N[C@@H](CCCCNC(=O)CC[C@H](NC(=O)CNC(=O)CC[C@H](NC(=O)CCCCCCCCCCCCCCCCC(=O)O)C(=O)O)C(=O)O)C(N)=O)NC(=O)[C@H](CCCNC(=N)N)NC(=O)[C@H](Cc2c[nH]cn2)NC(=O)[C@H](CCC(=O)O)NC(=O)CN(C)C(=O)[C@H](Cc2c[nH]c3ccccc23)NC(=O)[C@H](CC(=O)O)NC(=O)[C@H](CCC(N)=O)NC(=O)[C@H](Cc2cn(C)c3ccccc23)NC1=O [Compound 150, Ac-SEFA(1)I[1-Me-Trp]QDW[Sar]EHRhC(1)[Sar]EGE[Peg3]ES-K([17-carboxy-heptadecanoyl][γGlu]G[γGlu])-NH2] (Ac-SEFCI[Trp(1-Me)]QDW[Sar]EHR[Abu(4-yl)][Sar]EGE[AEEA]ESK([γGlu-Gly-γGlu-C18 diacid])-NH2; thioether 4-14) | < 100 nM | 120 h | 0.7% | 98% | 0.1% | 100% | 0.1% | 100% | – | – | – | – | –
2 | CC[C@H](C)[C@@H]1NC(=O)[C@@H](NC(=O)[C@H](Cc2ccccc2)NC(=O)[C@H](CCC(=O)O)NC(=O)[C@H](CO)NC(C)=O)CSSC[C@@H](C(=O)N(C)CC(=O)N[C@@H](CCC(=O)O)C(=O)NCC(=O)N[C@@H](C)C(=O)N[C@@H](CCCCNC(=O)COCCOCCNC(=O)CC[C@H](NC(=O)COCCOCCNC(=O)CNC(=O)CC[C@H](NC(=O)CCCCCCCCCCCCCCCCC(=O)O)C(=O)O)C(=O)O)C(N)=O)NC(=O)[C@H](CCCNC(=N)N)NC(=O)[C@H](Cc2c[nH]cn2)NC(=O)[C@H](CCC(=O)O)NC(=O)CNC(=O)[C@H](Cc2c[nH]c3ccccc23)NC(=O)[C@H](CC(=O)O)NC(=O)[C@H](CCC(N)=O)NC(=O)[C@H](Cc2cn(C)c3ccccc23)NC1=O [Compound 119] (Ac-SEFCI[Trp(1-Me)]QDWGEHRC[Sar]EGAK([AEEA-γGlu-AEEA-Gly-γGlu-C18 diacid])-NH2; disulfide 4-14) | < 100 nM | 139 h | 80% | 23% | 66% | 31% | 48% | 46% | – | – | – | – | –
3 | CC[C@H](C)[C@@H]1NC(=O)[C@@H](NC(=O)[C@H](Cc2ccccc2)NC(=O)[C@H](CCC(=O)O)NC(=O)[C@H](CO)NC(C)=O)CSCC[C@@H](C(=O)N(C)CC(=O)N[C@@H](CCC(=O)O)C(=O)NCCOCCOCC(=O)NCCOCCOCC(=O)N[C@@H](CCCCNC(=O)CC[C@H](NC(=O)CNC(=O)CC[C@H](NC(=O)CCCCCCCCCCCCCCCCC(=O)O)C(=O)O)C(=O)O)C(N)=O)NC(=O)[C@H](CCCNC(=N)N)NC(=O)[C@H](Cc2c[nH]cn2)NC(=O)[C@H](CCC(=O)O)NC(=O)CN(C)C(=O)[C@H](Cc2c[nH]c3ccccc23)NC(=O)[C@H](CC(=O)O)NC(=O)[C@H](CCC(N)=O)NC(=O)[C@H](Cc2cn(C)c3ccccc23)NC1=O [Compound 147, Ac-SEFA(1)I[1-Me-Trp]QDW[Sar]EHRhC(1)[Sar]E[Peg3][Peg3]-K([17-carboxy-heptadecanoyl][γGlu]G[γGlu])-NH2] (Ac-SEFCI[Trp(1-Me)]QDW[Sar]EHR[Abu(4-yl)][Sar]E[AEEA][AEEA]K([γGlu-Gly-γGlu-C18 diacid])-NH2; thioether 4-14) | < 100 nM | 108 h | 0.6% | 98% | 0.1% | 99% | 0.2% | 99% | – | – | – | – | –
4 | CC[C@H](C)[C@@H]1NC(=O)[C@@H](NC(=O)[C@H](Cc2ccc(O)cc2)NC(=O)[C@H](C)NC(=O)[C@H](CO)NC(=O)CNC(=O)[C@H](CCC(=O)O)NC(C)=O)CSSC[C@@H](C(=O)N(C)CC(=O)N[C@@H](CCC(=O)O)C(=O)NCC(=O)N[C@@H](CCCCNC(=O)COCCOCCNC(=O)COCCOCCNC(=O)CC[C@H](NC(=O)CCCCCCCCCCCCCCC(=O)O)C(=O)O)C(N)=O)NC(=O)[C@H](CCCNC(=N)N)NC(=O)[C@H](Cc2c[nH]cn2)NC(=O)[C@H](CCC(=O)O)NC(=O)CNC(=O)[C@H](Cc2c[nH]c3ccccc23)NC(=O)[C@H](CC(=O)O)NC(=O)[C@H](CCC(N)=O)NC(=O)[C@H](Cc2cn(C)c3ccccc23)NC1=O [Compound 104] (Ac-EGSAYCI[Trp(1-Me)]QDWGEHRC[Sar]EGK([AEEA-AEEA-γGlu-C16 diacid])-NH2; disulfide 6-16) | < 100 nM | 96.3 h | – | – | – | – | – | – | − (denotes lack of solubility at the given condition, as UV absorbance at 340 nm exceeds 0.1 AU and/or it is visibly turbid or contains particles.) | + (denotes solubility at the given condition, as determined by UV absorbance being less than 0.1 AU at 340 nm and the sample being clear when manually inspected.) | + (denotes solubility at the given condition, as determined by UV absorbance being less than 0.1 AU at 340 nm and the sample being clear when manually inspected.) | + (denotes solubility at the given condition, as determined by UV absorbance being less than 0.1 AU at 340 nm and the sample being clear when manually inspected.) | + (denotes solubility at the given condition, as determined by UV absorbance being less than 0.1 AU at 340 nm and the sample being clear when manually inspected.)
